Results on 29 compounds are retold here after article PMC6095626, “Screening of the Pathogen Box for inhibitors with dual efficacy against Giardia lamblia and Cryptosporidium parvum” (PLoS Neglected Tropical Diseases, 2018).

Experiment [1] deals with G. lamblia trophozoites (luciferase expressing, WBC6). Put plainly: microbe, parasite or virus in culture. The settings on record: initial Pathogen Box screen, single concentration 16 µM, inhibition compared to DMSO wells. Type of experiment: cell-based, Giardia lamblia. In outline:
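Incubation ran 24 h at 37 °C under anaerobic conditions, with compound added in equal volume to trophozoites (WBC6, luciferase-expressing, 250,000 cells/mL). Bioluminescence was the read-out, cross-checked by MOXI Z counts on a duplicate plate; metronidazole served as control (1:2 dilutions from 40 μM).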

Experiment [2] has as its system C. parvum (UGA1 Nluc expressing strain in HCT-8 cells). The experiment can be described thus: microbe, parasite or virus in culture. Type of experiment: cell-based, Cryptosporidium parvum. The settings on record: for Crypto (10 uM) Mean % inhibition: initial Pathogen Box screen, single concentration 10 µM, inhibition compared to DMSO wells. The method, boiled down:
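Parasite growth quantified by NanoLuc luminescence from lysed infected HCT-8 cells, with EC50 fitted from dose curves. Compounds, single-dose 10 μM or serially diluted, were added to confluent 48 h monolayers before infection with bleached UGA1 Nluc oocysts.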

Consider `Cc1ccccc1CN1CCC(O)(c2ccc(Cl)c(C(F)(F)F)c2)CC1` [MMV688846], for which the “Giardia (16 uM) Mean % inhibition” value in experiment [1] amounted to 35%. For the same compound, the “Crypto (10 uM) Mean % inhibition” value in experiment [2] was “X* (Mean or standard deviation are negative but not significantly different from the control to be a growth promoter)”.

Consider `CC(C)(C)n1nc(Cc2ccc(F)c(Cl)c2)c2c(N)ncnc21` [MMV688852], for which the “Giardia (16 uM) Mean % inhibition” value in experiment [1] is recorded as 27%. In addition, in experiment [2], the “Crypto (10 uM) Mean % inhibition” value is listed as 80%.

`CCOc1ccc2cc(-c3nn(C(C)(C)C)c(N)c3C(N)=O)cnc2c1` [MMV688853]: in experiment [1], the “Giardia (16 uM) Mean % inhibition” value is listed as “X* (Mean or standard deviation are negative but not significantly different from the control to be a growth promoter)”. Besides, the “C. parvum cell growth inhibition in the initial screen” value in experiment [2] (10 μM, 48 hours) is listed as no less than 95%. In addition, the “Crypto (10 uM) Mean % inhibition” value in experiment [2] worked out at 96%.

`CN1CCN(c2cc(-c3ccc(F)cc3)nc(-c3ccncc3)n2)CC1` [MMV688888]: the “Giardia (16 uM) Mean % inhibition” value in experiment [1] amounted to 62%. Moreover, in experiment [2], the “Crypto (10 uM) Mean % inhibition” value worked out at 84%.

Turning to `Clc1ccc(CCNc2cc(-c3ccccc3)nc3ncnn23)cc1` [MMV688889], in experiment [1], the “Giardia (16 uM) Mean % inhibition” value is on record as 65%. In experiment [2], the “Crypto (10 uM) Mean % inhibition” value came out at 51%.

Take `COc1cc(Br)cc2cc(C(=O)Nc3cccc(C(F)(F)F)c3)c(=O)oc12` [MMV688891]: the “Giardia (16 uM) Mean % inhibition” value in experiment [1] came out at 7.41%. Also, the “Crypto (10 uM) Mean % inhibition” value in experiment [2] was 51%.

In the case of `OC[C@H]1O[C@@H](n2c3ccc(Cl)cc3c3c(-c4cc5ccccc5o4)ncnc32)C(O)[C@H]1O` (some centres unmarked) [MMV688921], the “Giardia (16 uM) Mean % inhibition” value in experiment [1] came to 5.44%. Also, the “Crypto (10 uM) Mean % inhibition” value in experiment [2] is given as 51%.

With `CCc1nn(C)c(C(=O)NCc2ccc(Oc3ccc(C)cc3)cc2)c1Cl` [MMV688934], in experiment [1], the “Giardia (16 uM) Mean % inhibition” value was determined as 72%. Besides, the “Crypto (10 uM) Mean % inhibition” value in experiment [2] is 88%.

`O=C(c1ccco1)N(CCCn1ccnc1)c1nc2c(Cl)cccc2s1` [MMV688936]: in experiment [1], the “Giardia (16 uM) Mean % inhibition” value is reported as 31%. The “Crypto (10 uM) Mean % inhibition” value in experiment [2] is 6.36%.

For the compound `CCOc1ccc(-c2nc(CNCCc3ccc(F)cc3)cs2)cc1` [MMV688938], the “Giardia (16 uM) Mean % inhibition” value in experiment [1] is listed as 65%. For the same compound, the “Crypto (10 uM) Mean % inhibition” value in experiment [2] is reported as “X* (Mean or standard deviation are negative but not significantly different from the control to be a growth promoter)”.

On to `Cc1ccc2nc(C)c(-c3ccn(Cc4ccccc4)n3)n2c1` [MMV688939], for which the “Giardia (16 uM) Mean % inhibition” value in experiment [1] is “X* (Mean or standard deviation are negative but not significantly different from the control to be a growth promoter)”. The “Crypto (10 uM) Mean % inhibition” value in experiment [2] amounted to 73%.

For the compound `COc1cc(CN2CCC3(C=Cc4ccccc43)CC2)cc2c1OCO2` [MMV688941], in experiment [1], the “Giardia (16 uM) Mean % inhibition” value is on record as 62%. The “Crypto (10 uM) Mean % inhibition” value in experiment [2] was determined as 56%.

Consider `CC(C)(C)C(O)C(Oc1ccc(-c2ccccc2)cc1)n1cncn1` (centres unmarked) [MMV688942], for which the “Giardia (16 uM) Mean % inhibition” value in experiment [1] is 40%. Besides, the “Crypto (10 uM) Mean % inhibition” value in experiment [2] was “X* (Mean or standard deviation are negative but not significantly different from the control to be a growth promoter)”.

With `CC1COC(Cn2cncn2)(c2ccc(Oc3ccc(Cl)cc3)cc2Cl)O1` (centres unmarked) [MMV688943], the “Giardia (16 uM) Mean % inhibition” value in experiment [1] stood at 81%. Moreover, the “Crypto (10 uM) Mean % inhibition” value in experiment [2] is 46%.

For the compound `Cc1cc(NC(=O)c2ccc(Oc3ccc(Cl)cc3O)o2)no1` [MMV688955], the “Giardia (16 uM) Mean % inhibition” value in experiment [1] turned out to be 26%. Moreover, the “Crypto (10 uM) Mean % inhibition” value in experiment [2] was found to be 50%.

For the compound `CCc1cc(=O)n(C)c(SC(C)C(=O)Nc2ccc(F)cc2)n1` (centres unmarked) [MMV688980], in experiment [1], the “Giardia (16 uM) Mean % inhibition” value came to 17%. Besides, the “Crypto (10 uM) Mean % inhibition” value in experiment [2] was “X* (Mean or standard deviation are negative but not significantly different from the control to be a growth promoter)”.

Consider `CCCCCCCCCCCCCCCCOP(=O)([O-])OCC[N+](C)(C)C` [MMV688990], for which, in experiment [1], the “Giardia (16 uM) Mean % inhibition” value was “X* (Mean or standard deviation are negative but not significantly different from the control to be a growth promoter)”. The “Crypto (10 uM) Mean % inhibition” value in experiment [2] was “X* (Mean or standard deviation are negative but not significantly different from the control to be a growth promoter)”.

As for `CNC1C(OC2C(OC3C(O)C(O)C(N=C(N)N)C(O)C3N=C(N)N)OC(C)C2(O)C=O)OC(CO)C(O)C1O` (centres unmarked) [MMV688994], the “Giardia (16 uM) Mean % inhibition” value in experiment [1] is on record as “X* (Mean or standard deviation are negative but not significantly different from the control to be a growth promoter)”. Moreover, the “Crypto (10 uM) Mean % inhibition” value in experiment [2] is given as 47%.

As to `C[C@@H]1[C@H](O)[C@@H](C)/C=C/C=C/C=C/C=C/C=C/C=C/C=C/[C@H](O[C@@H]2O[C@H](C)[C@@H](O)[C@H](N)[C@@H]2O)C[C@@H]2O[C@](O)(C[C@@H](O)C[C@@H](O)[C@H](O)CC[C@@H](O)C[C@@H](O)CC(=O)O[C@H]1C)C[C@H](O)[C@H]2C(=O)O` [MMV689000], in experiment [1], the “Giardia (16 uM) Mean % inhibition” value is on record as 41%. For the same compound, the “Crypto (10 uM) Mean % inhibition” value in experiment [2] is given as “X* (Mean or standard deviation are negative but not significantly different from the control to be a growth promoter)”.

As to `Cc1ccc(S(=O)(=O)Nc2ccc(CN3CCN(C(=O)c4cccc(C#N)c4)CC3)cc2)cc1` [MMV689028], the “Giardia (16 uM) Mean % inhibition” value in experiment [1] is reported as 56%. Moreover, in experiment [2], the “Crypto (10 uM) Mean % inhibition” value amounted to 58%.

Consider `COc1ccc(S(=O)(=O)Nc2ccc(CN3CCN(C(=O)c4cccc(C#N)c4)CC3)cc2)cc1` [MMV689029], for which, in experiment [1], the “Giardia (16 uM) Mean % inhibition” value was determined as 54%. Further, the “Crypto (10 uM) Mean % inhibition” value in experiment [2] is given as 54%.

With `Clc1ccc(CN2CCN(C3=NCCN3)CC2)cc1Cl` [MMV689060], the “Giardia (16 uM) Mean % inhibition” value in experiment [1] was “X* (Mean or standard deviation are negative but not significantly different from the control to be a growth promoter)”. Also, in experiment [2], the “Crypto (10 uM) Mean % inhibition” value was determined as 50%.

Turning to `CC(=O)Nc1ccc(-c2noc(CC3CCCN(Cc4cccc(F)c4C)C3)n2)cc1` (centres unmarked) [MMV689061], the “Giardia (16 uM) Mean % inhibition” value in experiment [1] is listed as 17%. In addition, the “Crypto (10 uM) Mean % inhibition” value in experiment [2] is given as 59%.

In the case of `FC(F)(F)c1ccc(N(c2cccnc2)C2CCN(c3ccc(C(F)(F)F)cn3)CC2)cc1` [MMV689243], the “Giardia (16 uM) Mean % inhibition” value in experiment [1] worked out at 11%. In addition, in experiment [2], the “Crypto (10 uM) Mean % inhibition” value is given as “X* (Mean or standard deviation are negative but not significantly different from the control to be a growth promoter)”.

On to `O=C([C@@H](c1ccc(Cl)cc1)c1cccnc1)N1CCN(c2ccc(C(F)(F)F)cc2)CC1` [MMV689244], for which the “Giardia (16 uM) Mean % inhibition” value in experiment [1] came to 33%. Also, in experiment [2], the “Crypto (10 uM) Mean % inhibition” value was “X* (Mean or standard deviation are negative but not significantly different from the control to be a growth promoter)”.

As to `Nc1ncnc2c1ncn2C[C@@H](O)[C@@H](O)C(=O)O` [MMV689255], the “Giardia (16 uM) Mean % inhibition” value in experiment [1] was 33%. In addition, in experiment [2], the “Crypto (10 uM) Mean % inhibition” value came out at 46%.

As to `CC(c1cc(Cl)cc(Cl)c1)N(C)c1ncc2c(N)nc(N)nc2n1` (centres unmarked) [MMV689437], the “Giardia (16 uM) Mean % inhibition” value in experiment [1] is given as 46%. Also, the “Crypto (10 uM) Mean % inhibition” value in experiment [2] is given as “X* (Mean or standard deviation are negative but not significantly different from the control to be a growth promoter)”.

Turning to `CNc1cc(C)nc(C2CN(C(=O)c3n[nH]c4ccccc34)CCO2)c1` (centres unmarked) [MMV689709], the “Giardia (16 uM) Mean % inhibition” value in experiment [1] is 19%. In addition, the “Crypto (10 uM) Mean % inhibition” value in experiment [2] was determined as 45%.

Take `COc1nc2ccc(Br)cc2cc1[C@@H](c1ccccc1)[C@@](O)(CCN(C)C)c1cccc2ccccc12` [MMV689758]: the “Giardia (16 uM) Mean % inhibition” value in experiment [1] was found to be 62%. In experiment [2], the “Crypto (10 uM) Mean % inhibition” value worked out at 68%.
